Measurements taken from patent US6080753A, “Stimulating nerve growth with immunophilins” (Johns Hopkins University School of Medicine, priority 1997, dated 2000).
Entries after “also recorded” stand apart in the source; their conditions may differ. Blank lines part the entries; values can stand above or below the compound they belong to.

Legend:
PC-12 cells = test: Neurite outgrowth in PC-12 cells; assay type: cell-based
Description: PC-12 cells were maintained at 37° C., 5% CO2, in Dulbecco's modified Eagle medium (DMEM) supplemented with 10% heat-inactivated horse serum and 5% heat-inactivated fetal bovine serum. For differentiation in NGF, cells were plated at 1×10^5 in 35 mm culture wells coated with rat tail collagen at 5 μg/cm^2, and allowed to attach before replacing the media with DBMEM supplemented with 2% fetal horse serum, 1% fetal calf serum, NGF and/or FK506 or rapamycin. For quantitation of neurite outgrowth, random photographs were made (3-4 per well), and process bearing neurons were counted with processes being greater than 5 μm. Experimental conditions were unknown by the photographer and cell counter. Four separate experiments were performed in duplicate for each data point presented. Neurites were identified and counted from approximately 100 cells per photograph. Thus, neurites from 1200-1600 cells were counted per data point.

dorsal root ganglia = test: Neurite/axon outgrowth in dorsal root ganglia explant cultures; assay type: cell-based, rat; conditions: for time at which growth begins to plateau / time by which some outgrowth is evident: all concentrations
Description: Stage E16 embryos were removed from pregnant Sprague-Dawley rats and the dorsal root ganglia dissected. Whole ganglia explants were cultured in collagencoated 35 mm dishes (Falcon) using N2 medium (Dulbecco's Modified Eagle medium and Ham's F12 medium mixed 1:1 and supplemented with progesterone, selenium, insulin, putrescine, glucose, and penicillin-streptomycin) at 37° C. in a 15% CO2 environment. Sensory ganglia were treated with various concentrations of NGF and/or FK506 or rapamycin or anti-NGF antibody. Ganglia were observed every 2-3 days under phase-contrasting using an Olympus IMT-2 inverted microscope, and measurements of axon length were made. The axonal field of each ganglion was divided into four quadrants, and the length of the longest axons in each quadrant was measured in microns using an eye-piece micrometer. The average of these measurements was taken as the axon length for the ganglion.

FKBP [1] = biological target: T1, FKBP (Rattus norvegicus, UniProt Q62658); test: [3H]FK506 autoradiography on dorsal root ganglia cultures; assay type: binding; conditions: 1 μM unlabeled FK506, 1 nM [3H]FK506
T1 sequence (Q62658 whole entry): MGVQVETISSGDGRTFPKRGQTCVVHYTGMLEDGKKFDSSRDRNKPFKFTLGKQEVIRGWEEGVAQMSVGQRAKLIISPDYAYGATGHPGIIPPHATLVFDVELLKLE
Description: For [^3 H]FK506 autoradiography, dorsal root ganglia cultures were grown on chamber slides coated with collagen, 5 μg/cm^2. Cultures were fixed on the slide with ice cold 4.0% freshly depolymerized paraformaldehyde in 0.1 M sodium phosphate buffer, pH 7.4, for 1 hr, then washed two times with phosphate buffered saline. Fixed cultures were labeled with [^3 H]FK506 by pre-incubating the slides in a buffer consisting of 50 mM Hepes, 2 mg/ml bovine serum albumin, 0.02% Tween-20 pH 7.4. This was followed by incubation in the same assay buffer containing 1 nM [^3 H]FK506. Non-specific binding was determined by adding 1 μM unlabeled FK506. The slides were then rinsed 4×5 min prior to drying, and juxtaposed to tritium-sensitive film for 10 days.

FKBP [2] = biological target: T1, FKBP; test: [3H]FK506 binding to PC-12 cell homogenates; set-up: endogenous in cells; host or cells: PC-12 cells; conditions: for [3H]FK506 binding following NGF treatment: PC-12 cells, NGF 50 ng/ml
Description: Levels of FKBP in PC-12 cells were obtained from Scatchard analysis of [^3 H]FK506 binding curves. Cultures were scraped from the culture wells and homogenized in 10 volumes of 50 mM Tris-HCl, pH 7.4, 1 mM EDTA, 100 μg/ml phenylmethylsulfonylfluoride and centrifuged at 40,000×g for 20 min at 4° C. Protein was determined by the Coomassie blue dye binding assay using bovine serum albumin as a standard. Binding of 250 pM [^3 H]dihydro FK506 (86.5 Ci/mmol, DuPont/NEN) was assessed for samples containing 5 μg soluble protein in a final volume of 0.4 ml assay buffer containing 50 mM Tris-HCl, pH 7.4, 2 mg/ml BSA and varying concentrations of unlabeled FK506. After 60 min incubation at 25° C., 0.35 ml was layered over a 0.8 ml column of LH-20 Sephadex (Pharmacia LKB), pre-equilibrated with assay buffer. The column was further washed with 0.4 ml of assay buffer, the eluates collected, mixed with Formula 963 (DuPont/NEN) and counted in a Beckman scintillation counter. Specific binding was determined by subtracting binding obtained in the presence of 1 μM unlabeled FK506 from total [^3 H]FK506 bound.

FKBP [3] = biological target: T1, FKBP; test: [3H]FK506 binding in rat tissues (Table 1A); set-up: from tissue; host or cells: rat sciatic nerve, cerebral cortex, thymus, spleen; neonatal rat forebrain and growth cones
Excerpt: If FKBP were physiologically associated with neuronal process extension in the actions of GAP-43, then one might anticipate substantial levels of FKBP in peripheral nerve. Accordingly, we measured [^3 H]FK-506 binding in rat sciatic nerve, as well as in growth cones isolated from 2-day-old rat pups, and compared values with those of the cerebral cortex and several peripheral tissues.
For axon transport experiments, classic ligature techniques were used following the methods of Tetzlaff et al. One week following sciatic nerve crush two collection ligatures (510 sutures) were placed on the nerve approximately 10 mm apart with the distal most ligature positioned 10 mm proximal to the initial crush sight. Six hours later, 5-3 mm segments of the nerve were collected from regions proximal to, distal to, and between the collection ligatures as illustrated in FIG. 5. The nerve segments were prepared for [^3 H]FK-506 binding assays by homogenizing in 10 volumes of 50 mM Tris-HCl, pH 7.4. Homogenates were centrifuged at 15,000×g for 20 min at 4° C., and supernatants were collected and assayed for total protein concentration using the Coomassie blue dye binding assay (Pearce). [^3 H]FK-506 binding was carried out as described (4) on aliquots containing 2 ug of total soluble protein in a final volume of 0.4 ml assay buffer consisting of 50 mM Tris-HCl, pH 7.4, 2 mg/ml bovine serum albumin, 250 pM [^3 H]FK-506, and varying concentrations of unlabeled FK-506. Following incubation at 25° C. for 60 min, 0.35 ml was layered over a 0.8 ml column of LH-20 Sephadex (Pharmacia LKB) and washed with 0.4 ml of assay buffer. The eluates were collected and counted in a scintillation counter.

Compound: C=CC[C@@H]1/C=C(\C)C[C@H](C)C[C@H](OC)[C@H]2O[C@@](O)(C(=O)C(=O)N3CCCC[C@H]3C(=O)O[C@H](/C(C)=C/[C@@H]3CC[C@@H](O)[C@H](OC)C3)[C@H](C)[C@@H](O)CC1=O)[C@H](C)C[C@@H]2OC [FK506]
- kind of effect on neuritic processes (PC-12 cells): primarily increases neurite length
- reduction of the NGF concentration needed to elicit maximal outgrowth (PC-12 cells; FK506 100 nM): 20-50 fold
- effect on NGF-stimulated neurite outgrowth (PC-12 cells; FK506 100 nM, 48 hr): markedly augments the effect of NGF
- additional neurite outgrowth at maximal NGF (PC-12 cells; FK506 100 nM, NGF 10-100 ng/ml): fails to produce additional neurite outgrowth
- neurite outgrowth in the absence of NGF (PC-12 cells; no NGF): fails to elicit neurite outgrowth; also recorded: fails to stimulate neurite outgrowth
- EC50 (PC-12 cells; with NGF 1 ng/ml, 48 hr, read-out: half maximal effects on neurite outgrowth): ~0.1 nM
- FK506 concentration eliciting the same maximal outgrowth as 50 ng/ml NGF (PC-12 cells; with submaximal NGF 1 ng/ml, 48 hr): 1 nM
- neurite outgrowth compared with no added growth factor (dorsal root ganglia; FK506 1 pM): greater than in its absence
- neurite/axon outgrowth (dorsal root ganglia; FK506 1 μM alone): produces a similar neurotrophic effect; also recorded: abundant axon outgrowth
- neurite outgrowth (dorsal root ganglia; FK506 0.1 and 10 nM): Progressively greater outgrowth
- concentration required for maximal outgrowth (dorsal root ganglia; FK506 alone): 1 µM
- lowest concentration producing a noticeable increase in growth (dorsal root ganglia; FK506 alone): 1 nM
- lowest concentration producing detectable augmentation of outgrowth (dorsal root ganglia; FK506 alone): 1 pM
- time at which growth begins to plateau (dorsal root ganglia): 5 to 6 days
- time by which some outgrowth is evident (dorsal root ganglia): ≤ 1 days
- displacement of [3H]FK506 autoradiographic grains (FKBP [1]): autoradiographic grains are abolished
- IC50 (FKBP [2]; untreated PC-12 cell homogenates, 250 pM radioligand, read-out: Fifty percent inhibition of [3H]FK506 binding): 1 to 2 nM

- [3H]FK506 binding Bmax (FKBP [3]; adult rat, cerebral cortex): 48.0 pmol/mg protein
- [3H]FK506 binding Bmax (FKBP [3]; adult rat, sciatic nerve): 22.1 pmol/mg protein
- [3H]FK506 binding Bmax (FKBP [3]; adult rat, spleen): 8.0 pmol/mg protein
- [3H]FK506 binding Bmax (FKBP [3]; adult rat, thymus): 9.5 pmol/mg protein
- [3H]FK506 binding Bmax (FKBP [3]; neonatal rat, forebrain): 25.5 pmol/mg protein
- [3H]FK506 binding Bmax (FKBP [3]; neonatal rat, growth cones): 10.2 pmol/mg protein
Compound: [3H]CC([3H])C[C@@H]1/C=C(\C)C[C@H](C)C[C@H](OC)[C@H]2O[C@@](O)(C(=O)C(=O)N3CCCC[C@H]3C(=O)O[C@H](/C(C)=C/[C@@H]3CC[C@@H](O)[C@H](OC)C3)[C@H](C)[C@@H](O)CC1=O)[C@H](C)C[C@@H]2OC (some centres unmarked) [[^3 H]FK506]

Compound: CO[C@H]1C[C@@H]2CC[C@@H](C)[C@@](O)(O2)C(=O)C(=O)N2CCCC[C@H]2C(=O)O[C@H]([C@H](C)C[C@@H]2CC[C@@H](O)[C@H](OC)C2)CC(=O)[C@H](C)/C=C(\C)[C@@H](O)[C@@H](OC)C(=O)[C@H](C)C[C@H](C)/C=C/C=C/C=C/1C [rapamycin]
- kind of effect on neuritic processes (PC-12 cells): augments the number of processes as well as their length
- combined effect of FK506 and rapamycin (PC-12 cells; FK506 plus rapamycin): additive
- neurite outgrowth (PC-12 cells; rapamycin 1 nM): major neurite outgrowth
- blockade of the neurotrophic actions of FK506 (PC-12 cells; rapamycin 1 μM): fails to block the neurotrophic actions of FK506
- blockade of FK506 effect on outgrowth (dorsal root ganglia; rapamycin 1 μM with FK506 1 μM): completely blocks the effects of FK506; also recorded: completely inhibits axon outgrowth in the presence of FK506

- [3H]FK506 binding following NGF treatment (FKBP [2]): increases markedly
- [3H]FK506 binding following NGF treatment (FKBP [2]; by 20 hr): triples
Compound: nerve growth factor [NGF]
- concentration for maximal augmentation of neurite outgrowth (PC-12 cells; NGF alone): 50 to 100 ng/mL
- NGF concentration for half maximal outgrowth (PC-12 cells; in the absence of FK506): 5 ng/mL
- neurite/axon outgrowth (dorsal root ganglia; NGF 100 ng/ml): markedly increases the number and length of ganglia processes; also recorded: abundant axon outgrowth
- time at which growth begins to plateau (dorsal root ganglia): 5 to 6 days
- time by which some outgrowth is evident (dorsal root ganglia): ≤ 1 days
